What was measured:
Assay in all cases: radiometric filter-binding kinase assay, Kinase HotSpot
Conditions in all cases: compound 0.5 µM; ATP 10 µM
PRKD3 (human) = PRKD3 (human) (UniProt O94806)
ERBB4 (human) = ERBB4 (human) (UniProt Q15303)
AURKB (human) = AURKB (human) (UniProt Q96GD4)
MKNK2 (human) = MKNK2 (human) (UniProt Q9HBH9)
ACVR1B (human) = ACVR1B (human) (UniProt P36896)
CHEK1 (human) = CHEK1 (human) (UniProt O14757)
STK39 (human) = STK39 (human) (UniProt Q9UEW8)
MST4 (human) = MST4 (human) (UniProt Q9P289)
ROS1 (human) = ROS1 (human) (UniProt P08922)
EPHA3 (human) = EPHA3 (human) (UniProt P29320)
PRKX (human) = PRKX (human) (UniProt P51817)
EPHB3 (human) = EPHB3 (human) (UniProt P54753)
PRKCG (human) = PRKCG (human) (UniProt P05129)
MYLK (human) = MYLK (human) (UniProt Q15746)
Chain of MYLK (human) (Q15746 whole entry, looked up): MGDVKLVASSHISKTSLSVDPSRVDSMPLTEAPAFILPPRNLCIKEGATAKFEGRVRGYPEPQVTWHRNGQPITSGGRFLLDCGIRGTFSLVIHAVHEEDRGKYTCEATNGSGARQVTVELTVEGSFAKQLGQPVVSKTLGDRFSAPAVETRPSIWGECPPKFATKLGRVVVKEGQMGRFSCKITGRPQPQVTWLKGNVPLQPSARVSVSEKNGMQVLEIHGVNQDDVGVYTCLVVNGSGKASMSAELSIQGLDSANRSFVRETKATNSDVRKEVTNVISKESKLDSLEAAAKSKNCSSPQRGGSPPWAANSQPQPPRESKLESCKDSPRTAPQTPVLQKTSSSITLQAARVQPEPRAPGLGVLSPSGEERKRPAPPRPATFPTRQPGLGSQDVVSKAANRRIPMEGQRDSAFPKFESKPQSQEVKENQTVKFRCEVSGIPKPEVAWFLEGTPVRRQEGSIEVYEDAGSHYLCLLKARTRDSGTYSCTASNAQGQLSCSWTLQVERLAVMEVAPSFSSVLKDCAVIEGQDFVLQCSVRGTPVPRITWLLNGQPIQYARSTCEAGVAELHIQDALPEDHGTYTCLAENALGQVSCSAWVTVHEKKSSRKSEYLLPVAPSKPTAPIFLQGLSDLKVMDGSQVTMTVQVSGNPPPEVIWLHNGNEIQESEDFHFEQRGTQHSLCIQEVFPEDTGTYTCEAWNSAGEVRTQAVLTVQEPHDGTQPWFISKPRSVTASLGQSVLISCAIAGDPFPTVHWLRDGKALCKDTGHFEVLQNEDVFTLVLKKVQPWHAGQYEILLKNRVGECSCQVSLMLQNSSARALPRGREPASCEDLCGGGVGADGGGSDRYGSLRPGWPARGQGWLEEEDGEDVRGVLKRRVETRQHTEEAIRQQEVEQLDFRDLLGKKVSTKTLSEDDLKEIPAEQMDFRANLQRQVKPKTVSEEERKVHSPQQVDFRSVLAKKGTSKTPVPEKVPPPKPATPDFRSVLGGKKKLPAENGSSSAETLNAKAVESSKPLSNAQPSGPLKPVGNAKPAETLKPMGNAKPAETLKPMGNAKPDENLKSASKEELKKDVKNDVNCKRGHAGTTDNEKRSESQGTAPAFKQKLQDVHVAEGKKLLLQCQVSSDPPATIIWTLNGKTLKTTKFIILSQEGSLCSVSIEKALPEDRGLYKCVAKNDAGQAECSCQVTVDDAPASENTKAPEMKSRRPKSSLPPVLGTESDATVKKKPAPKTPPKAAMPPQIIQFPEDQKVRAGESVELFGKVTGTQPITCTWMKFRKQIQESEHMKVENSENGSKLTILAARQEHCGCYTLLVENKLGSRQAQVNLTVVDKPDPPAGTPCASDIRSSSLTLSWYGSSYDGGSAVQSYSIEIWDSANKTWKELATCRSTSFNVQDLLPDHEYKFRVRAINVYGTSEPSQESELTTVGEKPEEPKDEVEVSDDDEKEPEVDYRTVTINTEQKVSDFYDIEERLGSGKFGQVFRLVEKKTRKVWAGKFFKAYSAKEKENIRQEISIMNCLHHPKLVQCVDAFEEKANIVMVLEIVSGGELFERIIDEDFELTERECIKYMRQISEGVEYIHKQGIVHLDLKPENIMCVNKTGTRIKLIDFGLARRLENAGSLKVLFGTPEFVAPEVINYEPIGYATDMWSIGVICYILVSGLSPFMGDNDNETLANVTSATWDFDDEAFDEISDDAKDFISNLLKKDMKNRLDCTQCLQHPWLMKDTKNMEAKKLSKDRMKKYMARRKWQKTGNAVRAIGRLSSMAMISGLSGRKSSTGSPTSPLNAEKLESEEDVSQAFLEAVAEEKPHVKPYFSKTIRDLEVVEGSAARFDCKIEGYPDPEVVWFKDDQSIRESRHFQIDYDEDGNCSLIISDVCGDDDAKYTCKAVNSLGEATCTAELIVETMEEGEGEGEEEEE

PAK7 (human) = PAK7 (human) (UniProt Q9P286)
CAMK1G (human) = CAMK1G (human) (UniProt Q96NX5)
MARK1 (human) = MARK1 (human) (UniProt Q9P0L2)
NEK1 (human) = NEK1 (human) (UniProt Q96PY6)
DAPK3 (human) = DAPK3 (human) (UniProt O43293)
Chain of DAPK3 (human) (O43293 whole entry, looked up): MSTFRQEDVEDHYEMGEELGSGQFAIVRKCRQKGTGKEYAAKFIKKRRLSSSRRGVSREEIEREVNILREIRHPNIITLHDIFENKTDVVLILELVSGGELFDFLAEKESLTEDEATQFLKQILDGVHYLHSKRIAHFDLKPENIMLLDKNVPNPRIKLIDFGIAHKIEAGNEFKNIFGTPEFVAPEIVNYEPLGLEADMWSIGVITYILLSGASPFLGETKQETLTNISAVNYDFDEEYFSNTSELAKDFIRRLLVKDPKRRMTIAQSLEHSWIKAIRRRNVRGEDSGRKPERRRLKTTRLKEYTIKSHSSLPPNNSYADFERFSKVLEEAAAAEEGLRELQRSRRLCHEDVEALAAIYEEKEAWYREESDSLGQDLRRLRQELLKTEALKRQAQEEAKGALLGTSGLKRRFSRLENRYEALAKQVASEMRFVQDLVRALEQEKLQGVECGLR

PRKCA (human) = PRKCA (human) (UniProt P17252)
SGK3 (human) = SGK3 (human) (UniProt Q96BR1)
Chain of SGK3 (human) (Q96BR1 whole entry, looked up): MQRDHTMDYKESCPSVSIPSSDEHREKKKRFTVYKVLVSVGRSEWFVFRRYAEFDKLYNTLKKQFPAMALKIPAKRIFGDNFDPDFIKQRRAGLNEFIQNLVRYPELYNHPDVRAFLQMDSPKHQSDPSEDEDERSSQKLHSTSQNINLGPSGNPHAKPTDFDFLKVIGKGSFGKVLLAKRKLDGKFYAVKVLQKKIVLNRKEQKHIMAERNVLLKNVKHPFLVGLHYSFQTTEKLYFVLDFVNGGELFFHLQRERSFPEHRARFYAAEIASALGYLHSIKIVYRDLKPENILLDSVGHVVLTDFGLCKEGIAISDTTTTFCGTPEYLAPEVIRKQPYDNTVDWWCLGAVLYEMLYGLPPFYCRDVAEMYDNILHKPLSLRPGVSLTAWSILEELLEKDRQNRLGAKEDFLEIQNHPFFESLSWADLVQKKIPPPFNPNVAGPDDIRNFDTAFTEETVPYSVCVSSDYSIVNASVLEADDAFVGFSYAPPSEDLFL

MLTK (human) = MLTK (human) (UniProt Q9NYL2)
YES1 (human) = YES1 (human) (UniProt P07947)
WEE1 (human) = WEE1 (human) (UniProt P30291)
SIK2 (human) = SIK2 (human) (UniProt Q9H0K1)
FGFR2 (human) = FGFR2 (human) (UniProt P21802)
STK4 (human) = STK4 (human) (UniProt Q13043)
TAOK1 (human) = TAOK1 (human) (UniProt Q7L7X3)
PIM2 (human) = PIM2 (human) (UniProt Q9P1W9)
CDK4 CCND3 (human) = CDK4 CCND3 (human) (UniProt P30281+P11802)
MAPK12 (human) = MAPK12 (human) (UniProt P53778)
Chain of MAPK12 (human) (P53778 whole entry, looked up): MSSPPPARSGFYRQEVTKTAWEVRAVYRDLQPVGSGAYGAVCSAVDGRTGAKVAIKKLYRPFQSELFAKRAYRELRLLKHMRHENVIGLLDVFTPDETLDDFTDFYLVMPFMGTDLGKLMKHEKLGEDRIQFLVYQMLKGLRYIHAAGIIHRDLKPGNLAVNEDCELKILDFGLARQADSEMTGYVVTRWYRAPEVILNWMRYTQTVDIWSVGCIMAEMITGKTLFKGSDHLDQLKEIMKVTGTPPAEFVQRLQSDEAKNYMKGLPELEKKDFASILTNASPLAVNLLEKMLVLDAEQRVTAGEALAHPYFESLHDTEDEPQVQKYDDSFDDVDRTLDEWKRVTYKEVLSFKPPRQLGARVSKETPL

NLK (human) = NLK (human) (UniProt Q9UBE8)
CLK4 (human) = CLK4 (human) (UniProt Q9HAZ1)
IRAK4 (human) = IRAK4 (human) (UniProt Q9NWZ3)
CAMK2D (human) = CAMK2D (human) (UniProt Q13557)
CDK9 CCNT1 (human) = CDK9 CCNT1 (human) (UniProt P50750+O60563)
NEK2 (human) = NEK2 (human) (UniProt P51955)
PLK3 (human) = PLK3 (human) (UniProt Q9H4B4)
MST1R (human) = MST1R (human) (UniProt Q04912)
EPHB4 (human) = EPHB4 (human) (UniProt P54760)
HCK (human) = HCK (human) (UniProt P08631)
TGFBR1 (human) = TGFBR1 (human) (UniProt P36897)
Chain of TGFBR1 (human) (P36897 whole entry, looked up): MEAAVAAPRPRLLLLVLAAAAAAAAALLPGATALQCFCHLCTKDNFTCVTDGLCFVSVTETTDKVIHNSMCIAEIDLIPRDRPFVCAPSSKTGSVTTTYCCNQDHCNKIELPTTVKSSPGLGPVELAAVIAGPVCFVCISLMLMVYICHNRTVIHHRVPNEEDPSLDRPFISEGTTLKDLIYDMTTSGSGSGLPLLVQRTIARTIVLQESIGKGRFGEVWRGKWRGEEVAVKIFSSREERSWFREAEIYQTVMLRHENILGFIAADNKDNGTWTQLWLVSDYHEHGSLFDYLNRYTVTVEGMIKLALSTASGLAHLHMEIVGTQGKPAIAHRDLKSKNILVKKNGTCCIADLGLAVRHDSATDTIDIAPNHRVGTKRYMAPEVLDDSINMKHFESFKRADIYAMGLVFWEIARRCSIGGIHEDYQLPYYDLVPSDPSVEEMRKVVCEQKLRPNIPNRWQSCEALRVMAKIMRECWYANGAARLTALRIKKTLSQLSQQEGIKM

Chain of MKNK2 (human) (Q9HBH9 whole entry, looked up): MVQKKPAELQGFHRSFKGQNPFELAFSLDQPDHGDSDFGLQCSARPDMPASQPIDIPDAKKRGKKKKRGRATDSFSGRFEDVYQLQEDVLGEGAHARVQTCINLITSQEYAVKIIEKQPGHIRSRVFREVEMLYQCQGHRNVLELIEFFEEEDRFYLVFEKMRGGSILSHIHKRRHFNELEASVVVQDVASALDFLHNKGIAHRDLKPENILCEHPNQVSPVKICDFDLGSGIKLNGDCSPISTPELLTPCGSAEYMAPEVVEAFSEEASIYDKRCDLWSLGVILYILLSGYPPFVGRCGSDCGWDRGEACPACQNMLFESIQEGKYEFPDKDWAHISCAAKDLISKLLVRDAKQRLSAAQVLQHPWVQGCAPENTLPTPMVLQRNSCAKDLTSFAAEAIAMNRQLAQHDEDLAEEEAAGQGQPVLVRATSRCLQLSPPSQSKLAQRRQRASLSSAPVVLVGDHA

CN(C)C[C@H]1CCn2c(c(C3=C(c4cn(C)c5ccccc45)C(=O)NC3=O)c3ccccc32)C1 was tested, and the residual activity (PRKD3 (human)) was 93.6%, the residual activity (ERBB4 (human)) was 84.3% and the residual activity (AURKB (human)) was 96.3%. For the same compound, the residual activity (MKNK2 (human)) was 85.8%, the residual activity (ACVR1B (human)) was 98.2% and the residual activity (CHEK1 (human)) was 69.8%. For the same compound, the residual activity (STK39 (human)) was 102%, the residual activity (MST4 (human)) was 78% and the residual activity (ROS1 (human)) was 87.1%. It also gave a residual activity (EPHA3 (human)) of 99.2%, a residual activity (PRKX (human)) of 97.8% and a residual activity (EPHB3 (human)) of 105%. It also gave a residual activity (PRKCG (human)) of 6.93%, a residual activity (MYLK (human)) of 84% and a residual activity (PAK7 (human)) of 100%. It also gave a residual activity (CAMK1G (human)) of 95.8%, a residual activity (MARK1 (human)) of 92.8% and a residual activity (NEK1 (human)) of 105%. It also gave a residual activity (DAPK3 (human)) of 95.2%, a residual activity (PRKCA (human)) of 2.58% and a residual activity (SGK3 (human)) of 95%. The residual activity (MLTK (human)) was 87.3%, the residual activity (YES1 (human)) was 95.3% and the residual activity (WEE1 (human)) was 101%. It also gave a residual activity (SIK2 (human)) of 88.8%, a residual activity (FGFR2 (human)) of 104% and a residual activity (STK4 (human)) of 80.1%. It also gave a residual activity (TAOK1 (human)) of 93%, a residual activity (PIM2 (human)) of 102% and a residual activity (CDK4 CCND3 (human)) of 99.7%. For the same compound, the residual activity (MAPK12 (human)) was 102%, the residual activity (NLK (human)) was 101% and the residual activity (CLK4 (human)) was 111%. The residual activity (IRAK4 (human)) was 107%, the residual activity (CAMK2D (human)) was 82.4% and the residual activity (CDK9 CCNT1 (human)) was 39.6%. For the same compound, the residual activity (NEK2 (human)) was 106%, the residual activity (PLK3 (human)) was 100% and the residual activity (MST1R (human)) was 98.3%. For the same compound, the residual activity (EPHB4 (human)) was 90.9%, the residual activity (HCK (human)) was 95.3% and the residual activity (TGFBR1 (human)) was 99.8%.

From the kinase profiling compilation of Christmann-Franck et al. (2016)
